Results: patent US9301917B2, “Sustained-release pharmaceutical composition” (Kyoto University, priority 2010, dated 2016)

Columns and labels:
[1] = biological target: T1, collagen solution (KAI, pH 7, PB buffer) (Bos taurus, UniProt P02453+P02465); experiment: Influence of various sugars on gelation (fibrillogenesis time) of 3% collagen solution (Reference Example 3(1)); assay type: physicochemical; conditions: collagen 3% [w/v]; sugar 0.05 to 0.5 M (monosaccharide), 0.05 to 0.25 M (disaccharide), 0.05 M raffinose, 0.05, 0.125 M stachyose; without degassing
T1 construct: atelocollagen obtained by treatment with a protease such as pepsin; KAI
Description: • (1) The kind and concentration of a sugar to be added were changed, and an ability of the sugar to suppress the gelation of a collagen solution was confirmed by measuring a fibrillogenesis time.
The collagen was prepared so that the final concentration was 3% [w/v]. KAI (pH 7, PB buffer) was used as the collagen. The kinds and final concentrations of the used sugars are as described below. • (i) Monosaccharide: Glucose or Fructose
0.05, 0.125, 0.25, 0.5 M • (ii) Disaccharide: sucrose or maltose
0.05, 0.125, 0.25 M • (iii) Trisaccharide: raffinose
0.05 M • (iv) Tetrasaccharide: stachyose
It should be noted that, in this reference example, measurements were carried out without degassing.

[2] = biological target: T1, collagen solution (KAI, pH 7, PB buffer); experiment: Influence of maltotetraose and maltopentaose on gelation of collagen solution (Reference Example 4); assay type: physicochemical; conditions: collagen 3% [w/v]; sugar 0.05, 0.125 M
Description: The kind and concentration of a sugar to be added were changed, and an ability of the sugar to suppress the gelation of a collagen solution was confirmed by measuring a fibrillogenesis time.
The collagen was prepared so that the final concentration was 3% [w/v]. KAI (pH 7, PB buffer) was used as the collagen. The kinds and final concentrations of the used sugars are as described below. • (i) Tetrasaccharide: maltotetraose
0.05, 0.125 M • (ii) Pentasaccharide: maltopentaose

[3] = biological target: T2, collagen solution (KOKEN ATELOCOLLAGEN IMPLANT) (Bos taurus, UniProt P02453+P02465); experiment: Influence of sucrose, glucose and glucuronic acid on gelation of collagen solution (Reference Example 7); assay type: physicochemical; conditions: sugar 0.01 M, collagen 3% [w/v], pH 7.4, 37° C., absorbance at 400 nm
T2 construct: atelocollagen obtained by treatment with a protease such as pepsin; purchased KOKEN CO., LTD; KOKEN ATELOCOLLAGEN IMPLANT
Description: The following sugars were used as sugars to be added, and an ability of the sugar to suppress the gelation of a collagen solution was confirmed by measuring a fibrillogenesis time.
Monosaccharides: Glucose and Glucuronic Acid
Each of various sugar solutions was added to a collagen solution (pH 7.4, final concentration: 3% [w/v]) (KOKEN ATELOCOLLAGEN IMPLANT [KOKEN CO., LTD.]) so that the final concentration was 0.01 M, followed by mixing. The mixed solution was measured for its time-dependent change in absorbance at 400 nm with a spectrophotometer while being heated at 37° C.

KS collagen solution = experiment: Influence of tetrasaccharide on gelation of 0.4% collagen solution (Reference Example 3(2)); assay type: physicochemical; conditions: collagen 0.4% [w/v], pH 7; 0.05 M stachyose
Excerpt: (2) The influence of a tetrasaccharide on a gelation ability was confirmed in the same manner as in the above-mentioned method (1) except that: the concentration of the collagen was changed to 0.4% [w/v]; and KS collagen (pH 3) adjusted to pH 7 with a neutralization liquid (7% [w/v] Na2HPO4, 0.9% [w/v] NaCl) was used as the collagen solution. 0.05 M stachyose was used as the tetrasaccharide in the same manner as in the method (1).

Type I atelocollagen = experiment: Spectroscopic evaluation of influence of sugar on gelation of various collagen solutions (Reference Example 2); assay type: physicochemical, bovine, porcine; conditions: 0.25 M sucrose, 1×PBS, 37° C., absorbance at 400 nm, 3 hours
Description: (§1) The influences of a sugar on the gelation abilities (fibrillogenic abilities) of various collagen solutions were investigated.
First, various collagens were each diluted to 0.2% [w/v] with 1 mM HCl. The various collagens used were as follows. • Type I atelocollagen (3.5% KAI: bovine, Lot. 1-107, pH 7) • Type I atelocollagen (3% KAI: porcine, stock of the laboratory, pH 7) • Type II atelocollagen (CL-22, Lot. 622052, pH 3) • Type III atelocollagen (NIP, 0.3% PSC-3-100-20, Lot. BSP310G001, 5 mM acetic acid) • Type I native collagen (1% 1-AC, Lot. 6002173, pH 3) • Shark atelocollagen (produced in the laboratory, powder, stored at −30° C.) […]
(§2) 100 μl of each of the prepared samples were added to a 96-well microplate and measured for its time-dependent change in absorbance at 400 nm (measurement interval: 30 seconds, measurement time: 3 hours) with an optical absorption microplate reader (TECAN, SUNRISE Thermo RC-R) while heated at 37° C. An average of the measured values (n=3) at the respective times was calculated.

[4] = biological target: T2, collagen solution (KOKEN ATELOCOLLAGEN IMPLANT); experiment: Spectroscopic evaluation of influence of sugar on gelation ability of collagen solution (Reference Example 1); assay type: physicochemical; conditions: sucrose 0.01 or 0.25 M in collagen 3% [w/v], pH 7.4, 37° C., absorbance at 400 nm
Description: Specifically, a sucrose solution was added to a collagen solution (pH 7.4, final concentration: 3% [w/v]) (product name: KOKEN ATELOCOLLAGEN IMPLANT) so that the final concentration was 0, 0.01, or 0.25 M, followed by mixing. The mixed solution was measured for its time-dependent change in absorbance at 400 nm with a spectrophotometer while being heated at 37° C.

Type I native collagen = biological target: T3, Type I native collagen (Bos taurus, UniProt P02453+P02465); experiment: Spectroscopic evaluation of influence of sugar on gelation of various collagen solutions (Reference Example 2); assay type: physicochemical; conditions: 0.25 M sucrose, 1×PBS, 37° C., absorbance at 400 nm, 3 hours
T3 construct: Type I native collagen (1% 1-AC, Lot. 6002173, pH 3); purchased 1-AC, Lot; 6002173
Description: as §1
(§3) First, various collagens were each diluted to 0.2% [w/v] with 1 mM HCl. The various collagens used were as follows. • Type I atelocollagen (3.5% KAI: bovine, Lot. 1-107, pH 7) • Type I atelocollagen (3% KAI: porcine, stock of the laboratory, pH 7) • Type II atelocollagen (CL-22, Lot. 622052, pH 3) • Type III atelocollagen (NIP, 0.3% PSC-3-100-20, Lot. BSP310G001, 5 mM acetic acid) • Type I native collagen (1% 1-AC, Lot. 6002173, pH 3) • Shark atelocollagen (produced in the laboratory, powder, stored at −30° C.)
(§4) Distilled water (OTSUKA DISTILLED WATER, Cat. 1324, Lot. 0J90N), 2.5 M sucrose (Wako Pure Chemical Industries, Ltd., Cat. 196-00015, Lot. CKM1674), 100 mg/mL lysozyme (Tokyo Chemical Industry Co., Ltd., Cat. L072), and 10×PBS (DULBECCO′PBS, Dainippon Sumitomo Pharma Co., Ltd., Cat. 28-103-05 FN, Lot. 896458) were added to each of the various collagen solutions at 0.2% [w/v] to prepare a solution having final concentrations of 0.2% [w/v] collagen/0.25 M sucrose/10 mg/mL lysozyme/1×PBS. At this time, the ingredients were added so that the collagen, distilled water, sucrose, lysozyme, and PBS were mixed in this order.
as §2

Type III atelocollagen = biological target: T4, Type III atelocollagen (Bos taurus, UniProt P04258); experiment: as above; assay type: physicochemical; conditions: 0.25 M sucrose, 1×PBS, 37° C., absorbance at 400 nm, 3 hours
T4 construct: atelocollagen obtained by treatment with a protease such as pepsin; purchased NIP PSC-3-100-20, Lot; BSP310G001
T4 sequence (P04258 15-1040 limits assumed): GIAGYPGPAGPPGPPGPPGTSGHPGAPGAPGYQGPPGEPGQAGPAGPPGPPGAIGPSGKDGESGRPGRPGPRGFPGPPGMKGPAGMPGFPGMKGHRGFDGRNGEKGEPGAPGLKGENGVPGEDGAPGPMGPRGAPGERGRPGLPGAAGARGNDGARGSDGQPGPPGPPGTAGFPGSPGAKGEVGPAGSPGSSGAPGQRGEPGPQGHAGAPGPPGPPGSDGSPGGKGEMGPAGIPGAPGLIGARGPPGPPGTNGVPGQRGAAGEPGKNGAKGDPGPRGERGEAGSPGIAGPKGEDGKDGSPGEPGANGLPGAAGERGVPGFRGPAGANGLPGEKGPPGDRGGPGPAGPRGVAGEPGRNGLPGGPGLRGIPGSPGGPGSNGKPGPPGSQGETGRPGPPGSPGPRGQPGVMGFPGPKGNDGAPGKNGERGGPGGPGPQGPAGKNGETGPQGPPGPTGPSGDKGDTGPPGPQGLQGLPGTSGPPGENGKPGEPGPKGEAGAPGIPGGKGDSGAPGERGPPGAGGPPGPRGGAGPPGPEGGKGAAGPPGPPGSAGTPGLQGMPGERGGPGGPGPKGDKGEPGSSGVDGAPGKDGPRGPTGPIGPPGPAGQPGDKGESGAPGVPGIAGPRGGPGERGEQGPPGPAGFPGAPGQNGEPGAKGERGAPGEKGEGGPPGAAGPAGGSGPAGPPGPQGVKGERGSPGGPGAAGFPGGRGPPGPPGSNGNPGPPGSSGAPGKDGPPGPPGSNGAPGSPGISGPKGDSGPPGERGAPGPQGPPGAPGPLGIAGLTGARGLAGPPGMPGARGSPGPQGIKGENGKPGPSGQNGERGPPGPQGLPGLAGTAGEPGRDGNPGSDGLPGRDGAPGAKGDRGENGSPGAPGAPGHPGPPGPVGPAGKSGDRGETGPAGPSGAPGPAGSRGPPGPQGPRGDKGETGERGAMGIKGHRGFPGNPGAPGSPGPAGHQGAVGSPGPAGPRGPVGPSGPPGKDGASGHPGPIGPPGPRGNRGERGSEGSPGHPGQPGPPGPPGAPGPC
Description: as §1, §3, §4, §2

Type II atelocollagen = biological target: T5, Type II atelocollagen (Bos taurus, UniProt P02459); experiment: as above; assay type: physicochemical; conditions: 0.25 M sucrose, 1×PBS, 37° C., absorbance at 400 nm, 3 hours
T5 construct: atelocollagen obtained by treatment with a protease such as pepsin; purchased CL-22, Lot; 622052
Description: as §1, §3, §4, §2

Shark atelocollagen = experiment: as above; assay type: physicochemical; conditions: 0.25 M sucrose, 1×PBS, 37° C., absorbance at 400 nm, 3 hours
Description: as §1, §3, §4, §2

[5] = In vivo drug sustained-release ability of thyroglobulin formulation (Example 11); conditions: thyroglobulin (669 kDa) with atelocollagen 3% [w/v], sucrose 0.25 M; 100 μL subcutaneous in mice; afterwards low sustained-release rate
Excerpt: The sustained-release amount of thyroglobulin was quantitatively measured by HPLC in a time-dependent manner.
3.5% [w/v] atelocollagen Lot. I-175, Kasai Lac, 2.5 M sucrose, and a 100-mg protein solution were mixed at a blending ratio of 8:1:1. First, syringes filled with atelocollagen and sucrose were connected in series on ice, followed by thorough mixing by reciprocation 50 times. The mixed liquid was mixed with the protein solution by syringe reciprocation 50 times immediately before subcutaneous injection into mice.
The mice were purchased from Japan SLC, Inc. ICR strain female mice were purchased at 7-week-old 1 week before use and used at 8-week old. The collagen mixed liquid was injected into three sites in an amount of 100 μL per site (n=3). Each of samples after 0, minutes, 30 minutes, 45 minutes, 1 hour, 3 hours, 6 hours, and 12 hours was extirpated and heated to 80° C. in an Eppendorf tube so as to denature the collagen into a solution form. Each of the samples was analyzed through use of Agilent HPLC and an SEC-4 gel filtration column to quantify the concentration of the protein in the gel. In the HPLC, thyroglobulin is eluted at 5.927 minutes.

T2 sequence (P02453 178-1191 limits assumed): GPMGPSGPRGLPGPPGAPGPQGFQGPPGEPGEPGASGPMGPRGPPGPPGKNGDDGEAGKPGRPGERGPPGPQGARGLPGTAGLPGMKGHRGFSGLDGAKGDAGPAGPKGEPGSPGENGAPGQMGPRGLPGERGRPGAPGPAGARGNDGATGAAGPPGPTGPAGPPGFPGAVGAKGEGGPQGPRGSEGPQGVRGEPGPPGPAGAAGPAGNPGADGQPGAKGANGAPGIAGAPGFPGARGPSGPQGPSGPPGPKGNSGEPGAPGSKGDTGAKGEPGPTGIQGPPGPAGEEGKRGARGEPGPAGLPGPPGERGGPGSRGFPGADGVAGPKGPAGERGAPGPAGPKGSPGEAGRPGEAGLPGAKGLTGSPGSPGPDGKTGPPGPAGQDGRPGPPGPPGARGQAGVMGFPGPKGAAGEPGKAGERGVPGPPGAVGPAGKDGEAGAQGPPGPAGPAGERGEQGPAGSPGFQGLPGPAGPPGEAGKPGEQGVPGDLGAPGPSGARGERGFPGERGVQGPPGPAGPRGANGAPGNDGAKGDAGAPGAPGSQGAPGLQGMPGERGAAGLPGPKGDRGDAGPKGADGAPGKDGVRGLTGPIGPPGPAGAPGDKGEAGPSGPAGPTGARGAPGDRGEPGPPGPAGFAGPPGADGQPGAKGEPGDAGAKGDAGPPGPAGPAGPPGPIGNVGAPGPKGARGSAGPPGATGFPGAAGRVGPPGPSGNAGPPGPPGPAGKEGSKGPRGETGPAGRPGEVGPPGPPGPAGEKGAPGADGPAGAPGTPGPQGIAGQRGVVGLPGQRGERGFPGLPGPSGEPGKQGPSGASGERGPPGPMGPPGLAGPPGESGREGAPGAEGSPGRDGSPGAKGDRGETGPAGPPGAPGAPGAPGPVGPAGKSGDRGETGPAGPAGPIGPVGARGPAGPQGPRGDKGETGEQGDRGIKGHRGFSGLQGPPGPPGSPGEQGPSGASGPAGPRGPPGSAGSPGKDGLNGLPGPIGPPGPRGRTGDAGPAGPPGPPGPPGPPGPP
T2 sequence (P02465 80-1117 limits assumed): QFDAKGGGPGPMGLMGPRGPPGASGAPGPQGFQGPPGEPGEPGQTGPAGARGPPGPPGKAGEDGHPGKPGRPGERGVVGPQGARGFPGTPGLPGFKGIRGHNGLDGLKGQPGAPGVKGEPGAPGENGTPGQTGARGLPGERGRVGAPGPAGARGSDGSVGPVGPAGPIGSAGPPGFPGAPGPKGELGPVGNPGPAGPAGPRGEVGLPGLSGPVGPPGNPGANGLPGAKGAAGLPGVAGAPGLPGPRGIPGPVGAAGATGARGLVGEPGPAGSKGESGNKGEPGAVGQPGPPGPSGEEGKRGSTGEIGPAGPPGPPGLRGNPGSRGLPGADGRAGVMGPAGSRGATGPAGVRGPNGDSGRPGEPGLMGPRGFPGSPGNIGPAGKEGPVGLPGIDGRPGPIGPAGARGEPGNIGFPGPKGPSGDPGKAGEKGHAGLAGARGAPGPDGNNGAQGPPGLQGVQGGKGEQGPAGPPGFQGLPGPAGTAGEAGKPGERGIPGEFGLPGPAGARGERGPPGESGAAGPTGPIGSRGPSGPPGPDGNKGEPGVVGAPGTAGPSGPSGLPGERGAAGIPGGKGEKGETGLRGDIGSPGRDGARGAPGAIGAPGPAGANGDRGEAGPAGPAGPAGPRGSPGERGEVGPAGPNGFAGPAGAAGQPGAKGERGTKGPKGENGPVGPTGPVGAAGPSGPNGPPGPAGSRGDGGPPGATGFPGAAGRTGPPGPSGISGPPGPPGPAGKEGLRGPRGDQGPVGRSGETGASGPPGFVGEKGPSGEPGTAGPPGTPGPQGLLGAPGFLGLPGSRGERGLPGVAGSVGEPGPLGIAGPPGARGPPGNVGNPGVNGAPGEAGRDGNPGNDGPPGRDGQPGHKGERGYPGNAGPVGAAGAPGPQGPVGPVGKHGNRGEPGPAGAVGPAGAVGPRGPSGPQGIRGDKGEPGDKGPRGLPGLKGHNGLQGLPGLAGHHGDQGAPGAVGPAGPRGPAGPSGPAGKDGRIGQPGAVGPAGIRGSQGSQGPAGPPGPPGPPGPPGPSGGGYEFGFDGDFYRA
T1 sequence (P02453 178-1191 limits assumed): as the sequence (P02453 178-1191 limits assumed) above
T1 sequence (P02465 80-1117 limits assumed): as the sequence (P02465 80-1117 limits assumed) above
T5 sequence (P02459 201-1214 limits assumed): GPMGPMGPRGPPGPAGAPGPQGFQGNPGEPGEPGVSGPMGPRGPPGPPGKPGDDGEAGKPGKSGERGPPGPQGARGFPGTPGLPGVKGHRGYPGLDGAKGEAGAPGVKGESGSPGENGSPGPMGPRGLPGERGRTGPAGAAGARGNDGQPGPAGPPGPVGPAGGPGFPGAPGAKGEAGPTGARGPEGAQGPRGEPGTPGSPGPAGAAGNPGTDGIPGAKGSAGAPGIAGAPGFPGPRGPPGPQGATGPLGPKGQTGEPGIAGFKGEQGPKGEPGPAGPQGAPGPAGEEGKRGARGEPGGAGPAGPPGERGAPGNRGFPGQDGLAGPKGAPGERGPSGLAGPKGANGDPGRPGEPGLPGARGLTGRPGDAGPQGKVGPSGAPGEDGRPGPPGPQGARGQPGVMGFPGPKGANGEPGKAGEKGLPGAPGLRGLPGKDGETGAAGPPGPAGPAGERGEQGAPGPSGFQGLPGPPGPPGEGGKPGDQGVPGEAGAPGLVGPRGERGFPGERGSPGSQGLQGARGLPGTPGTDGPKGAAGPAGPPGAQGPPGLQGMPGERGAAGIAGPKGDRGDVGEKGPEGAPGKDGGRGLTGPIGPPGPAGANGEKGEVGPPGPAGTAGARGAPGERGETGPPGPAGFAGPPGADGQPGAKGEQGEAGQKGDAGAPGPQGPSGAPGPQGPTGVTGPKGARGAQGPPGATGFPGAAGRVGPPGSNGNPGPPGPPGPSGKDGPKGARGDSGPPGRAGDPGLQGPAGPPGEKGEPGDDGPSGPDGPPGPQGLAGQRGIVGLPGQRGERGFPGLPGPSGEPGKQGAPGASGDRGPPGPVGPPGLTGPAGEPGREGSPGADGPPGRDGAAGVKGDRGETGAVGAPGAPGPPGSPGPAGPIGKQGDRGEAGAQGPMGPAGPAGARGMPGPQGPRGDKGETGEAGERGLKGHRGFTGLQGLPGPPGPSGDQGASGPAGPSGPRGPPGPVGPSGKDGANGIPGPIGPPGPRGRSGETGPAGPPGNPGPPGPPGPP
T3 sequence (P02465 80-1117): as the sequence (P02465 80-1117 limits assumed) above
T3 sequence (P02453 162-1217): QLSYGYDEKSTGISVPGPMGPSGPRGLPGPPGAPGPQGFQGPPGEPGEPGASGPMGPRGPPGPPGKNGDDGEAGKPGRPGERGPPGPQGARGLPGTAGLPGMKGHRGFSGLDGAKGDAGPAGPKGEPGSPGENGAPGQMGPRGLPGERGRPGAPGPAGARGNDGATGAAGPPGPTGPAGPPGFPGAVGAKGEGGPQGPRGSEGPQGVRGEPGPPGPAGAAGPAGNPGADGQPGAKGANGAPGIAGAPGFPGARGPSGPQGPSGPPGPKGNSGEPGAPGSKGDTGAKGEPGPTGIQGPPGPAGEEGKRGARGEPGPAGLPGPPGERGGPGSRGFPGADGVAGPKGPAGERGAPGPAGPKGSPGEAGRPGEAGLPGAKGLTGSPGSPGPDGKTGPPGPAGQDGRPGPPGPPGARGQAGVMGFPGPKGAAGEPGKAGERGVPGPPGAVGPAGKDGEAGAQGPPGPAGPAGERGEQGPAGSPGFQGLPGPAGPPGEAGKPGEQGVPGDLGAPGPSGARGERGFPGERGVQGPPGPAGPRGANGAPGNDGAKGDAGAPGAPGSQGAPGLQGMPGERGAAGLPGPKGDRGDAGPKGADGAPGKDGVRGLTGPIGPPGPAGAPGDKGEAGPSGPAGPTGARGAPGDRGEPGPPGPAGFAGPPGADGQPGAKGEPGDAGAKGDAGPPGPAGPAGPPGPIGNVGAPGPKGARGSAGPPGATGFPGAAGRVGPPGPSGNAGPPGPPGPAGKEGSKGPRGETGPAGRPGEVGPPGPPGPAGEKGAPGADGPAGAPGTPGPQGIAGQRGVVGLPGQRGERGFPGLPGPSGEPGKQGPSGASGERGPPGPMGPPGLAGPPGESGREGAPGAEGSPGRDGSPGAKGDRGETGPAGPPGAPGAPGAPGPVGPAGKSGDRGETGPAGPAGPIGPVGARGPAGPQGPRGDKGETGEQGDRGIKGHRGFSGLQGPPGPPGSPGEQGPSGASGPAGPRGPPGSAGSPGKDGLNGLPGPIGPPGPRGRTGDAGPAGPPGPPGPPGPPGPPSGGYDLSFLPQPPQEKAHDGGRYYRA

OC[C@H]1O[C@H](O[C@H]2[C@H](O)[C@@H](O)C(O)O[C@@H]2CO)[C@H](O)[C@@H](O)[C@@H]1O (mixture of isomers) [maltose]
suppression of gelation of collagen (fibrillogenesis time) [1]: suppressed in a concentration-dependent manner

OC[C@H]1O[C@H](O[C@H]2[C@H](O)[C@@H](O)[C@@H](O[C@H]3[C@H](O)[C@@H](O)[C@@H](O[C@H]4[C@H](O)[C@@H](O)C(O)O[C@@H]4CO)O[C@@H]3CO)O[C@@H]2CO)[C@H](O)[C@@H](O)[C@@H]1O (some centres unmarked) [Maltotetraose, maltotetraose]
fibrillogenesis suppressing effect (fibrillogenesis time) [2]: comparable to that of the monosaccharide

O=C(CO)[C@@H](O)[C@H](O)[C@H](O)CO [fructose]
suppression of gelation of collagen (fibrillogenesis time) [1]: suppressed in a concentration-dependent manner

O=C[C@H](O)[C@@H](O)[C@H](O)[C@H](O)C(=O)O [glucuronic acid]
gelation suppressing effect [3]: low gelation suppressing effect as compared to glucose

OC[C@H]1O[C@H](OC[C@H]2O[C@H](O[C@]3(CO)O[C@H](CO)[C@@H](O)[C@@H]3O)[C@H](O)[C@@H](O)[C@@H]2O)[C@H](O)[C@@H](O)[C@H]1O [raffinose]
suppression of gelation of collagen (fibrillogenesis time) [1]: delayed as compared to the case of adding no sugar

OC[C@H]1O[C@H](OC[C@H]2O[C@H](OC[C@H]3O[C@H](O[C@]4(CO)O[C@H](CO)[C@@H](O)[C@@H]4O)[C@H](O)[C@@H](O)[C@@H]3O)[C@H](O)[C@@H](O)[C@H]2O)[C@H](O)[C@@H](O)[C@H]1O [stachyose]
suppression of gelation of collagen (fibrillogenesis time) [1]: hardly confirmed | fibrillogenesis time of the collagen solution (KS collagen solution): delayed

OC[C@H]1O[C@@](CO)(O[C@H]2O[C@H](CO)[C@@H](O)[C@H](O)[C@H]2O)[C@@H](O)[C@@H]1O [sucrose]
gelation suppressing effect [3]: high gelation suppressing effect | suppression of gelation of collagen (fibrillogenesis time) [1]: suppressed in a concentration-dependent manner | influence on gelation of collagen solution (Type I atelocollagen): suppressed gelation | influence on gelation of collagen solution [4]: delayed in a sucrose concentration-dependent manner | influence on gelation of collagen solution (Type I native collagen): suppressed gelation | influence on gelation of collagen solution (Type III atelocollagen): suppressed gelation | influence on gelation of collagen solution (Type II atelocollagen): suppressed gelation | influence on gelation of collagen solution (Shark atelocollagen): suppressed gelation

maltopentaose
fibrillogenesis suppressing effect (fibrillogenesis time) [2]: substantially no delay

thyrogloblin: high molecular weight protein (669 kDa) used as drug in sucrose/atelocollagen formulation
period of fast release after the injection [5]: ≤ 3 h
